Results reported in US7919261B2, “Methods for predicting treatment response based on the expression profiles of protein and transcription biomarkers” (Merck Sharp & Dohme Corp., priority 2006, dated 2011).

Experiments:
HUT78 = test: TUNEL assay, vorinostat, JAK inhibitor and combination; assay type: cell-based, human; conditions: for % TUNEL positive cells: HUT78 cells, 48 h, induction of apoptosis
IM_9 = test: CellTiter-Blue Cell Viability Assay; assay type: cell-based; conditions: Homo sapiens, IM-9; cell line IM_9, Multiple Myeloma; read-out: IC50 (μM) (Cell Titre-Blue assay)
Protocol: (§1) For the proliferation assay, cell lines were seeded on 96-well plates (Corning). […] The CellTiter-Blue Reagent™ was added to each of the wells. Experiments were performed in triplicate. The plates were then placed at 37° C. for two hours, and subsequently read on the Flex Station II […] from Molecular Devices. The IC50 values were calculated using the Sigma Plot software.
(§2) An expanded set of 50 human cell lines, including the twelve cell lines listed in Table 1, were assembled (Table 2), that represent a range of lymphoid tumor types (including 10 diffuse large B cell lymphoma, 10 Burkitt lymphoma, 8 multiple myeloma and 5 CTCL).

OCI_LY_19 = test: CellTiter-Blue Cell Viability Assay; assay type: cell-based; conditions: Homo sapiens, OCI-LY19; cell line OCI_LY_19, Lymphoma DLBCL; read-out: IC50 (μM) (Cell Titre-Blue assay)
Protocol: as §1, §2

HUT_102 = test: CellTiter-Blue Cell Viability Assay; assay type: cell-based; conditions: Homo sapiens, HuT-102; cell line HUT_102 (HUT102), Lymphoma - CTCL; read-out: IC50 (μM) (Cell Titre-Blue assay)
Protocol: as §1, §2

HuT_78 = test: CellTiter-Blue Cell Viability Assay; assay type: cell-based; conditions: Homo sapiens, HuT78; cell line HuT_78, Lymphoma- CTCL; read-out: IC50 (μM) (Cell Titre-Blue assay)
Protocol: as §1, §2

RL = test: CellTiter-Blue Cell Viability Assay; assay type: cell-based; conditions: Homo sapiens; cell line RL, Lymphoma - DLBCL; read-out: IC50 (μM) (Cell Titre-Blue assay)
Protocol: as §1, §2

SU_DHL_4 = test: CellTiter-Blue Cell Viability Assay; assay type: cell-based; conditions: Homo sapiens, SU-DHL-4; cell line SU_DHL_4, Lymphoma DLBCL; read-out: IC50 (μM) (Cell Titre-Blue assay)
Protocol: as §1, §2

DB = test: CellTiter-Blue Cell Viability Assay; assay type: cell-based; conditions: Homo sapiens; cell line DB, Lymphoma DLBCL; read-out: IC50 (μM) (Cell Titre-Blue assay)
Protocol: as §1, §2

Toledo [1] = test: CellTiter-Blue Cell Viability Assay; assay type: cell-based; conditions: Homo sapiens, cell line Toledo (1), Lymphoma DLBCL, read-out: IC50 (μM) (Cell Titre-Blue assay)
Protocol: as §1, §2

ST486 = test: ApoONE Homogeneous Caspase-3/7 Assay; assay type: cell-based, human; conditions: cell line ST486
Protocol: (§3) Apoptosis assay: ApoONE® Homogeneous Caspase-3/7 Assay (Promega) was performed according to standard protocol (Promega). For the caspase assay cell lines were seeded and treated with vorinostat as previously indicated. After 24 hours of treatment, a volume equal to the media volume in each well of Apo-One Caspase 3/7 lysis was added to each well with cells. The apoptosis assay was then performed according to the manufacturer's instructions. The plates were read on the Flex Station II 384 from Molecular Devices. Where indicated, DNA fragmentation in response to vorinostat was also assessed in some cell lines by TUNEL assay (BD-PharMingen). […] Samples were analyzed by flow cytometry (FACSCalibur).
as §2

SUP_T1 = test: ApoONE Homogeneous Caspase-3/7 Assay; assay type: cell-based, human; conditions: cell line SUP_T1 (SUPT1)
Protocol: as §3, §2

JM1 = test: ApoONE Homogeneous Caspase-3/7 Assay; assay type: cell-based, human; conditions: cell line JM1
Protocol: as §3, §2

BC_3 = test: ApoONE Homogeneous Caspase-3/7 Assay; assay type: cell-based, human; conditions: cell line BC_3
Protocol: as §3, §2

HH = test: ApoONE Homogeneous Caspase-3/7 Assay; assay type: cell-based, human; conditions: cell line HH
Protocol: as §3, §2

Toledo [2] = test: ApoONE Homogeneous Caspase-3/7 Assay; assay type: cell-based, human
Protocol: as §3, §2

SMILES | induction of apoptosis in combination with vorinostat (TUNEL assay) (HUT78; HUT78 CTCL cells, as detailed in Table 4) | % TUNEL positive cells (HUT78) | IC50 (IM_9) | IC50 (OCI_LY_19) | IC50 (HUT_102) | IC50 (HuT_78) | IC50 (RL) | IC50 (SU_DHL_4) | IC50 (DB) | IC50 (Toledo [1]) | Caspase 3,7 activation- 24 h (1 μM vorinostat)* (ST486) | Caspase 3,7 activation- 24 h (1 μM vorinostat)* (SUP_T1) | Caspase 3,7 activation- 24 h (1 μM vorinostat)* (JM1) | Caspase 3,7 activation- 24 h (1 μM vorinostat)* (BC_3) | Caspase 3,7 activation- 24 h (1 μM vorinostat)* (HH) | Caspase 3,7 activation- 24 h (1 μM vorinostat)* (Toledo [2]; cell line Toledo (1)) | Caspase 3,7 activation- 24 h (1 μM vorinostat)* (Toledo [2]; cell line Toledo (avg))
CC(C)(C)c1nc2c3cc[nH]c(=O)c3c3cc(F)ccc3c2[nH]1 [Compound B, 2-tert-butyl-9-fluoro-1,6-dihydro-7H-benzo[h]imidazo[4,5-f]isoquinolin-7-one] | synergistic induction of apoptosis | 37% | – | – | – | – | – | – | – | – | – | – | – | – | – | – | –
CN[C@@H]1C[C@H]2O[C@@](C)([C@@H]1OC)n1c3ccccc3c3c4c(c5c6ccccc6n2c5c31)C(=O)NC4 [ST, staurosporine] | – | 40% | – | – | – | – | – | – | – | – | – | – | – | – | – | – | –
O=C(CCCCCCC(=O)Nc1ccccc1)NO [vorinostat, suberoylanilide hydroxamic acid] | – | 11% | 1.57 µM | 1.58 µM | 0.83 µM | 2.13 µM | 2.23 µM | 1.88 µM | 1.87 µM | 0.66 µM | + (Caspase 3,7 activation > 2 fold over untreated control.) | + (Caspase 3,7 activation > 2 fold over untreated control.) | + (Caspase 3,7 activation > 2 fold over untreated control.) | + (Caspase 3,7 activation > 2 fold over untreated control.) | + (Caspase 3,7 activation > 2 fold over untreated control.) | + (Caspase 3,7 activation > 2 fold over untreated control.) | + (Caspase 3,7 activation > 2 fold over untreated control.)
